Results reported in patent US20250090698A1, “SMALL MOLECULE INHIBITORS FOR EARLY DIAGNOSIS OF PROSTATE SPECIFIC MEMBRANE ANTIGEN CANCERS AND NEURODEGENERATIVE DISEASES” (INDIAN INSTITUTE OF TECHNOLOGY INDORE, priority 2018, published 2025).
Values joined by “and” are separate entries in the source; they are usually repeats but may differ in a detail not shown here. Identical values can stand only once.

Experiments:
PSMA protein [1] = molecular target: T1, PSMA protein (Homo sapiens, UniProt Q04609); assay: Binding affinity of 99mTc AAPT-PCa bioconjugates in PSMA+ LNCaP cells, gamma counter; settings: 99mTc bioconjugate, counts per minute, 1 h incubation, read-out: dissociation constant (KD), binding affinity
T1 construct: endogenous in cells; host or cells: LNCaP
Method: In an embodiment, FIG. 24, evaluation of binding affinity of AAPT-PCa Bioconjugate 8a in PSMA+ LNCaP cells was done, using gamma scintillation counter. The binding affinity constant of PSMA targeted conjugate, 8a, to target PSMA was determined in vitro in LNCaP cells by measuring the counts per minute for different concentrations of the ^99mTc bioconjugate 8a in triplicate.
A solution of stannous chloride dihydrate (0.80 mg, 0.003 mmol) in 0.2 M hydrochloric acid (0.8 mL) was added to a solution of sodium-α-D-glucoheptonate dihydrate (800 mg, 2.815 mmol) in nitrogen-purged water. Chelating bioconjugate 8a-g (0.001 mmol) was added to the reaction mixture while continuous nitrogen purging. The pH of the solution was adjusted to 6.8 using 0.1 N sodium hydroxide solution. After the pH adjustment nitrogen-purged water was added to achieve a total volume of 10 mL. The solution was then dispensed in 5 mL vials (1 mL/vial) under nitrogen atmosphere and lyophilized for 48 h. […]
The cells were then gently dissociated with trypsin and centrifuge to obtain a pellet. […] The cell pellet free of unbound bioconjugate was resuspended in the ice-cold FACS buffer to evaluate cell-bound radioactivity using a gamma counter. The dissociation constant Kd was calculated using graph pad prism 7.04.

[2] = molecular target: T2, PSMA protein isolated from prostate cancer cell LNCaP (Homo sapiens, UniProt Q04609); assay: PSMA or GCPII enzyme inhibition (NAALADase) assay, Amplex Glutamate kit; format: biochemical; settings: NAAG 30 nM substrate, 60 min, fluorescence
T2 construct: membrane portion of PSMA enzyme was extracted from PSMA+ LNCaP cell line; endogenous in cells; host or cells: LNCaP (membrane pellet after 100,000 x g ultracentrifugation)
Method: Briefly, PSMA enzyme was extracted from membrane lysates of LNCaP cell lines after separating the soluble cytosolic PSM′ portion by ultracentrifugation at 100,000×g. The PSMA enzyme (8.3027 ng, 100 μL) free from cytosolic portion was incubated with various concentrations of the AAPT inhibitor (0.1 nM to 1000 nM, 100 μL) in the presence of NAAG (30 nM, 50 μL) for 60 min in a 24-well plate. The amount of glutamic acid released by the hydrolysis of NAAG during competitive inhibition by AAPT inhibitor was measured by incubating each well with a working solution of Amplex Red reagent (100 uM, 50 μL) for 30 min at 37° C. The fluorescence emission from each well, proportional to the amount of released glutamic acid, was measured using Synergy H1 multimode plate reader (BioTek Instruments, Inc., Winooski, VT, USA) at an excitation and emission wavelength of 530 nm and 590 nm respectively.
In the first trial, the enzyme inhibition analysis was performed by incubating PSMA enzyme with increasing concentrations of inhibitor, AAPT.
Fluorescent-based enzyme inhibition assay was performed to determine the IC50 value of the newly synthesized GCPII inhibitors 1-3 (AAPT ligands). Amplex Glutamate kit was purchased from Invitrogen, and a working solution of Amplex Red reagent (5 mL, 100 μM) was prepared. Meanwhile, membrane portion of PSMA enzyme was extracted from PSMA+ LNCaP cell line by following a reported protocol. Briefly LNCaP cells (1 million) were harvested in HEPES buffer (1 mL) and lyzed twice using probe sonicator for 30 s. […] The amount of glutamic acid released by the hydrolysis of NAAG was measured by incubating a working solution of Amplex Red reagent (50 μL, 100 μM) for 30 min at 37° C. The fluorescence emission after the oxidation of Amplex Red reagent was measured by using Synergy H1 multimode plate reader (BioTek Instruments, Inc., Winooski, VT, USA). The excitation wavelength was fixed at 530 nm, and the fluorescence emission is measured at 590 nm. […]

PSMA protein [3] = molecular target: T1, PSMA protein; assay: Binding affinity of fluorescent conjugates in LNCaP cells by flow cytometry (FACS); settings: mean fluorescence intensity, triplicate, read-out: dissociation constant (KD)
Method: In an embodiment in FIG. 15, Evaluation of binding affinity of PSMA targeted fluorescent conjugate 22, AAPT-C17201, using flow cytometry analysis. The binding affinity constant of PSMA targeted fluorescent conjugate, AAPT-C17201, to target PSMA was determined in vitro in LNCaP cells by measuring the mean fluorescence intensity per cell for different concentrations of the fluorescent conjugate in triplicate using Fluorescence Activated Cell Sorting (FACS) study.

T1 sequence (Q04609 whole entry): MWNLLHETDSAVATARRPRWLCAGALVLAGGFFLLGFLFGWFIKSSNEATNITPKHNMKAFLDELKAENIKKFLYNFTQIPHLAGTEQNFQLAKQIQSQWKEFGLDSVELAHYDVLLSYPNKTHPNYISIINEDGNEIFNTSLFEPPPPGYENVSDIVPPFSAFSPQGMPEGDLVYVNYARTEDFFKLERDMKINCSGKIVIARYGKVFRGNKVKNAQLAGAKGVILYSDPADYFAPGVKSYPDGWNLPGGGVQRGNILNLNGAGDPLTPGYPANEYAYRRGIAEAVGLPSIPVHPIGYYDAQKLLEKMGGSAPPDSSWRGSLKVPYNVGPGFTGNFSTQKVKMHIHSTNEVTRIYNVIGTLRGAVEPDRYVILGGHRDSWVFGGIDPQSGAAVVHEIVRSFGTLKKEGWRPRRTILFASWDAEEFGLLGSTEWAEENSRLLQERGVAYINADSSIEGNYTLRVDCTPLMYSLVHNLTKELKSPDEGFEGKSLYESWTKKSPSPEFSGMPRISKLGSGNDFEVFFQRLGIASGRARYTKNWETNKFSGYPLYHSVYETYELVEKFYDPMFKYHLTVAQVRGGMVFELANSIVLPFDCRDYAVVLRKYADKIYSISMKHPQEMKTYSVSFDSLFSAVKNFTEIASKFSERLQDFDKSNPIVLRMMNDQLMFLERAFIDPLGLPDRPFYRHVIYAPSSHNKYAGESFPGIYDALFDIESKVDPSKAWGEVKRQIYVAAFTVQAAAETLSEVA
T2 sequence (Q04609 whole entry): as above

| Kd (PSMA protein [3]) | SMILES | further results |
| --- | --- | --- |
| – | NC(CNC(=O)[C@H](Cc1cccc2ccccc12)NC(=O)[C@H](Cc1cccc2ccccc12)NC(=O)CCCCCCCNC(=O)CCC(NC(=O)CNC(CCC(=O)O)C(=O)O)C(=O)O)C(=O)N[C@@H](CC(=O)O)C(=O)N[C@@H](CS)C(=O)O (stereo partly shown) [Ligand 8g] | Kd (PSMA protein [1]): 42 nM |
| – | O=C(O)CC[C@H](NCC(=O)N[C@@H](CCC(=O)O)C(=O)O)C(=O)O [Ligand 1] | IC50 [2]: 38.5 nM and 95 nM and 78 nM |
| 130 nM | CCN(CC)c1ccc2c(-c3ccccc3C(=O)NCCCC[C@H](NC(=O)CCCCCCCNC(=O)c3ccc(CNC(=O)[C@H](Cc4ccccc4)NC(=O)[C@H](Cc4ccccc4)NC(=O)CCCCCCCNC(=O)CC[C@H](NC(=O)CN[C@@H](CCC(=O)O)C(=O)O)C(=O)O)cc3)C(=O)N[C@@H](CC(=O)O)C(=O)NCCN)c3ccc(=[N+](CC)CC)cc-3oc2c1 [Ligand 25] | – |
| 85 nM | CCN(CC)c1ccc2c(-c3ccccc3C(=O)NCCCC[C@H](NC(=O)CCCCCCCNC(=O)[C@H](Cc3ccccc3)NC(=O)[C@H](Cc3ccccc3)NC(=O)CCCCCCCNC(=O)CC[C@H](NC(=O)CN[C@@H](CCC(=O)O)C(=O)O)C(=O)O)C(=O)N[C@@H](CC(=O)O)C(=O)NCCN)c3ccc(=[N+](CC)CC)cc-3oc2c1 [Ligand 22] | – |
